Test results taken from US11471460B2, “Autophagy modulators for use in treating cancer” (The United States of America,as represented by the …, priority 2017, dated 2022).
pEC50, pKd: −log10 of the molar value.

How the values were obtained:
lysosomes in U2OS cells = experiment: Ratiometric analysis of lysosomal pH (Oregon Green 488 dextran); assay type: cell-based, human; conditions: 1 μM
Protocol: U2OS cells were cultured for 4 hr with vehicle, 1 μM compound 1, or 50 mM ammonium chloride. The results of two independent experiments were averaged together. Data were analyzed by one-way ANOVA (p=0.0005) and Tukey's post-hoc test (p<0.0001). Scale bars indicate 10 μm. The results of three independent experiments were averaged together. […] Cells that had been transfected with LAMP1-RFP expression vector were then stained with LysoSensor Green DND-189, a fluorescent probe that fluoresces only in the acidic compartments of live cells. […] Bars represent 20 μm.
To determine the pH of individual lysosomes, dual-wavelength ratio imaging was conducted as previously describe (102), with minor modifications. U2OS and RAW264.7 cells were cultured in imaging chambers (Cellvis, Mountain View Calif., Cat #C4-1.5/h-N) in complete culture medium at 37° C. and 5% CO2. Cells were incubated overnight with 50 μg/mL Oregon Green 488 dextran (Invitrogen, Carlsbad, Calif., D7170). The following day, the cells were cultured with dextran-free complete culture medium for at least 2 h to ensure lysosomal targeting of the probe. Cells were then cultured with compound 1 for the indicated times and concentrations. […]

[1] = system: breast adenocarcinoma cells; experiment: Viability of breast adenocarcinoma cells; assay type: cell-based; conditions: Homo sapiens; breast adenocarcinoma cells; read-out: EC50
Protocol: (§1) FIG. 18 summarizes results from 13 human cell lines. All cells were seeded at the same cell density in a rich culture medium and assayed under identical conditions. Compound 1 efficacy is the ratio of cell viability with compound 1 to cell viability with chloroquine derivatives.

U2OS cells [2] = experiment: Tandem sensor RFP-GFP-LC3B: fraction of yellow (neutral pH) puncta; assay type: cell-based, human; conditions: 1 μM, 4 hrs
Protocol: Confocal microscopic images are shown in FIG. 12A of U2OS cells expressing a modified tandem sensor RFP-GFP-tagged LC3B protein in which the green signal from a mutated GFP was suppressed in an acidic environment, with little or no effect on the red signal from RFP. Thus, autophagosomes with neutral pH would fluoresce yellow, whereas autolysosomes with acidic pH would fluoresce red. These cells were treated with either vehicle or 1 μM compound 1 for 4 hrs. The fraction of yellow puncta, representing autophagosomes with a neutral pH, was quantified in 50 cells from each of three independent experiments (mean±SEM; Student's t-test, p<0.0001) as shown in FIG. 12B. The fraction of yellow puncta increased 4-fold in the presence of compound 1 (right side graph).
To determine whether the accumulation of autophagosomes resulted from induction of autophagy or from disruption of autophagic flux, cells were transfected with a vector expressing a modified tandem sensor RFP-GFP-tagged LC3B protein in which the green signal from a mutated GFP was suppressed in an acidic environment, with little or no effect on the red signal from RFP^41. Therefore, in merged images, only red puncta indicated acidic autolysosomes; yellow puncta indicated either autophagosomes or non-acidic autolysosomes. […]

U2OS cells [3] = experiment: Size of LAMP1-RFP-labeled vacuoles (lysosomes), confocal microscopy; assay type: cell-based, human
Protocol: LAMP1 protein is a lysosomal membrane marker. Nuclei were stained with DAPI. Therefore, the enlarged cytoplasmic vacuoles induced by compounds from this invention are lysosomes.
The selection of circular, enlarged, lysosomes was carried out using a size mask of 0.5 to 5.0 μm^2. Punctate lysosomes were selected with a size mask of 0.1 to 1.5 μm^2. Thresholds were the same for all images. Clustered lysosomes were not included in the size analysis. The mean area (μm^2)±SEM was plotted (O). From 235 to 545 lysosomes were measured for each time point. The number of lysosomes per μm^2 (E) was determined at the beginning and end of this experiment and plotted on a separate Y-axis.

melanoma A375 cells = experiment: Cytoplasmic vacuolization of A375 cells; assay type: cell-based, human
embryonic kidney cells = experiment: Viability of embryonic kidney cells; assay type: cell-based; conditions: Homo sapiens; embryonic kidney cells; read-out: EC50
Protocol: as §1
Cells were obtained from the American Type Culture Collection. BORCS5-KO HeLa cells have been described previously. Osteosarcoma U2OS were routinely seeded in 6-well plates (0.5×10^5 cells/well) and cultured in Dulbecco's Modified Eagle's medium supplemented with L-Glutamine, 4.5 g/L Glucose, Sodium Pyruvate, Phenol Red, and either heat-inactivated or normal 10% fetal calf serum at 37° C. in 5% CO2. Approximately 15-19 hours later, the indicated compound was added in 1:1000 dilutions. […] Melanoma A375, embryonic kidney 293T and human foreskin fibroblast Hs27 cells were cultured in the same medium, except that cells were seeded into 12-well plates at 10^3 cells/well.

PIKFYVE = biological target: T1, PIKFYVE (Homo sapiens, UniProt Q9Y2I7); experiment: DiscoverX KINOMEscan dissociation constant; assay type: binding
T1 construct: purchased DiscoverX (KINOMEscan service, San Diego, Calif.)
T1 sequence (Q9Y2I7 whole entry): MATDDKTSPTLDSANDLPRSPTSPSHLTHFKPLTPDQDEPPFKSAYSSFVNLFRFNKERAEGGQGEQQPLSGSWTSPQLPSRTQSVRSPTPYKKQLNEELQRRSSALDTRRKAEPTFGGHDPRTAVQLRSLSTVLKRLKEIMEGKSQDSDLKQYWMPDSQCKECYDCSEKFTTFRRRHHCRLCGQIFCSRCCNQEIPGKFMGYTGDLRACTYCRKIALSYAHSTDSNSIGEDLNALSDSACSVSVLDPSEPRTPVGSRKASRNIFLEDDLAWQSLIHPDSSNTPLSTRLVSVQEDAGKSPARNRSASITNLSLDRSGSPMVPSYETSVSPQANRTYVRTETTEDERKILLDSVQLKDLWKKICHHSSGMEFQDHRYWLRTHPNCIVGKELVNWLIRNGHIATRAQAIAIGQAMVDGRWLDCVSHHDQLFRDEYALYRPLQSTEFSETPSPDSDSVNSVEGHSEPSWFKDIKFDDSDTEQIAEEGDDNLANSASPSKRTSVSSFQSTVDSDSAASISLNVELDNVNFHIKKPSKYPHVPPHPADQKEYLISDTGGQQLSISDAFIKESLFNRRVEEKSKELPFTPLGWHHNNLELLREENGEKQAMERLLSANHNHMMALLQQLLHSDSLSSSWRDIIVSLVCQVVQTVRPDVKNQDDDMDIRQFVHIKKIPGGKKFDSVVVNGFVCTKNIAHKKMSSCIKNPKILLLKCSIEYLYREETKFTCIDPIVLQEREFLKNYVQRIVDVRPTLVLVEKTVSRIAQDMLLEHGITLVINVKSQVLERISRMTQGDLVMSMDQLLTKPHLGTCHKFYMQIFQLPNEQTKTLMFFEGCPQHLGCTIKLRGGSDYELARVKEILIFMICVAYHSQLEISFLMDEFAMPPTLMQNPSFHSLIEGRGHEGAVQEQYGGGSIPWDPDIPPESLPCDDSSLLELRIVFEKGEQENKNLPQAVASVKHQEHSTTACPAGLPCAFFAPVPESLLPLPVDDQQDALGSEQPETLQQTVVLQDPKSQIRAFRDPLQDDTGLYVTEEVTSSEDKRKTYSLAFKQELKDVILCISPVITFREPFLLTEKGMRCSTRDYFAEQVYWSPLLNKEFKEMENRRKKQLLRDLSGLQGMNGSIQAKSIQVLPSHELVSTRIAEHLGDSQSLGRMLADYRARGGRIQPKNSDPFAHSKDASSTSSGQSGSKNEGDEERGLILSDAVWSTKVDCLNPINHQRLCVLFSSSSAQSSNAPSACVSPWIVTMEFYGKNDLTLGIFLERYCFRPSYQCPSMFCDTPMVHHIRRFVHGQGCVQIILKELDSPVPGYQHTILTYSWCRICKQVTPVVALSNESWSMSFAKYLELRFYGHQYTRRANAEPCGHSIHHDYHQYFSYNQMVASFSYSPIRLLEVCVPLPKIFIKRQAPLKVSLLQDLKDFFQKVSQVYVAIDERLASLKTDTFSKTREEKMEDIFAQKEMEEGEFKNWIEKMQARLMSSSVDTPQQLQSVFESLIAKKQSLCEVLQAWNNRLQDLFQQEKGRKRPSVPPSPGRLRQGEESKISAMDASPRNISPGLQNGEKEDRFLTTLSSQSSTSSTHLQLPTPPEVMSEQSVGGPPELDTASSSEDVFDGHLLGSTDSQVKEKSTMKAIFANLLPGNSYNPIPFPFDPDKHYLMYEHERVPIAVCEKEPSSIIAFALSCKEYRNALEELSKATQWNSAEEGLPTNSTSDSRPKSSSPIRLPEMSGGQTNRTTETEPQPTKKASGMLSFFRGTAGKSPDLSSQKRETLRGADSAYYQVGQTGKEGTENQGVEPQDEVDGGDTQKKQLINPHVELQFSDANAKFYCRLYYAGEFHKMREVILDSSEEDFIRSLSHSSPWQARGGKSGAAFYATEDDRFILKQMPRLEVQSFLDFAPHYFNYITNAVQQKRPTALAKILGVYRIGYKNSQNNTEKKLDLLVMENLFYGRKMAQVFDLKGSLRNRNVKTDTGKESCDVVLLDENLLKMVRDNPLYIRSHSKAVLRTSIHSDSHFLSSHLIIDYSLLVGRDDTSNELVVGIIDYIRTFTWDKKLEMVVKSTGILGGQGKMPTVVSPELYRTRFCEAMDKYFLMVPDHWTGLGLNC
Protocol: Each kinase was tagged with a unique DNA sequence that allowed the amount of protein bound to the solid support to be quantified by PCR. The top three targets for compound 1 were PIKFYVE, PIP4K2C and MTOR. […] Dissociation constants (Kd) were determined from the amount of kinase captured on the solid support as a function of the test compound concentration (nM) on a log10 scale. Mean Kd values (±range) are given for each compound. The ratio of PIP4K2C to PIKFYVE indicates the relative specificity for these two kinases.
To address this hypothesis, a panel of 468 human kinases were screened for their ability to bind compound 1. […] The top two candidates were PIKFYVE (phosphoinositide kinase FYVE-type zinc finger containing) and PIP4K2C (phosphatidylinositol-5-phosphate 4-kinase). PIKFYVE is a kinase that is essential for mouse development (49) and that prevents endosome enlargement and cytoplasmic vacuolization (50, 51). PIP4K2C is a kinase that is not essential for mouse growth and viability, but it is essential for the immune system (52), mTORC1 signaling (53), and regulation of autophagy (54). The third candidate was MTOR, a kinase that regulates autophagy (55). Therefore, the binding constants (Kd) for all five members of the compound 1-family were determined for each of these three proteins from two independent titration curves, as shown for compound 1.

C1=Nc2ccccc2/C1=C/NNc1nc(Nc2ccccc2)nc(N2CCOCC2)n1 [compound 1]
Mean pH of lysosomes (lysosomes in U2OS cells; 4 h, untreated cells 5.3): 5.0
Effect on lysosomal acidity (lysosomes in U2OS cells; 4 hours): did not affect lysosomal acidity significantly
pEC50 [1]: < 5.00
Increase in fraction of yellow puncta (U2OS cells [2]): 4 fold
Puncta that were yellow in merged images (U2OS cells [2]): at least 80%
Time for lysosomal motility and size to revert after removal of the compound (U2OS cells [3]; live cells expressing LAMP1-RFP): within one hour
Increase in size of LAMP1-labeled vacuoles (U2OS cells [3]; within 20 hours, 1 μM): 9 fold
Cytoplasmic vacuolization of A375 cells (melanoma A375 cells): induced extensive cytoplasmic vacuolization
pEC50 (embryonic kidney cells): < 5.00
Standing within the family for PIKFYVE binding (PIKFYVE): the most potent member
pKd (PIKFYVE; mean of two independent titration curves): 9.00
